In patent US9340590B2 (priority 2011, dated 2016) one finds IC50 data, which are given here for eight molecules.

Positions of bridges follow the written chain, without caps; N, C: chain ends. Non-standard residues stand in square brackets, D forms with d. Residues, ends and D or L forms follow the SMILES beside them. Trp(1-Me) = Cn1cc(C[C@H](N)C(=O)O)c2ccccc21; Lys(Me2) = CN(C)CCCC[C@H](N)C(=O)O Bounds are passed on as bounds.

One test addresses hNav1.7 (Homo sapiens, UniProt Q15858). Description: cell-based. Conditions: Nav1.7 Use IC50.
The target of the next test is hNav1.5 (Homo sapiens, UniProt Q14524). Kind of test: cell-based.
Chain of hNav1.5 (Q14524 whole entry, looked up): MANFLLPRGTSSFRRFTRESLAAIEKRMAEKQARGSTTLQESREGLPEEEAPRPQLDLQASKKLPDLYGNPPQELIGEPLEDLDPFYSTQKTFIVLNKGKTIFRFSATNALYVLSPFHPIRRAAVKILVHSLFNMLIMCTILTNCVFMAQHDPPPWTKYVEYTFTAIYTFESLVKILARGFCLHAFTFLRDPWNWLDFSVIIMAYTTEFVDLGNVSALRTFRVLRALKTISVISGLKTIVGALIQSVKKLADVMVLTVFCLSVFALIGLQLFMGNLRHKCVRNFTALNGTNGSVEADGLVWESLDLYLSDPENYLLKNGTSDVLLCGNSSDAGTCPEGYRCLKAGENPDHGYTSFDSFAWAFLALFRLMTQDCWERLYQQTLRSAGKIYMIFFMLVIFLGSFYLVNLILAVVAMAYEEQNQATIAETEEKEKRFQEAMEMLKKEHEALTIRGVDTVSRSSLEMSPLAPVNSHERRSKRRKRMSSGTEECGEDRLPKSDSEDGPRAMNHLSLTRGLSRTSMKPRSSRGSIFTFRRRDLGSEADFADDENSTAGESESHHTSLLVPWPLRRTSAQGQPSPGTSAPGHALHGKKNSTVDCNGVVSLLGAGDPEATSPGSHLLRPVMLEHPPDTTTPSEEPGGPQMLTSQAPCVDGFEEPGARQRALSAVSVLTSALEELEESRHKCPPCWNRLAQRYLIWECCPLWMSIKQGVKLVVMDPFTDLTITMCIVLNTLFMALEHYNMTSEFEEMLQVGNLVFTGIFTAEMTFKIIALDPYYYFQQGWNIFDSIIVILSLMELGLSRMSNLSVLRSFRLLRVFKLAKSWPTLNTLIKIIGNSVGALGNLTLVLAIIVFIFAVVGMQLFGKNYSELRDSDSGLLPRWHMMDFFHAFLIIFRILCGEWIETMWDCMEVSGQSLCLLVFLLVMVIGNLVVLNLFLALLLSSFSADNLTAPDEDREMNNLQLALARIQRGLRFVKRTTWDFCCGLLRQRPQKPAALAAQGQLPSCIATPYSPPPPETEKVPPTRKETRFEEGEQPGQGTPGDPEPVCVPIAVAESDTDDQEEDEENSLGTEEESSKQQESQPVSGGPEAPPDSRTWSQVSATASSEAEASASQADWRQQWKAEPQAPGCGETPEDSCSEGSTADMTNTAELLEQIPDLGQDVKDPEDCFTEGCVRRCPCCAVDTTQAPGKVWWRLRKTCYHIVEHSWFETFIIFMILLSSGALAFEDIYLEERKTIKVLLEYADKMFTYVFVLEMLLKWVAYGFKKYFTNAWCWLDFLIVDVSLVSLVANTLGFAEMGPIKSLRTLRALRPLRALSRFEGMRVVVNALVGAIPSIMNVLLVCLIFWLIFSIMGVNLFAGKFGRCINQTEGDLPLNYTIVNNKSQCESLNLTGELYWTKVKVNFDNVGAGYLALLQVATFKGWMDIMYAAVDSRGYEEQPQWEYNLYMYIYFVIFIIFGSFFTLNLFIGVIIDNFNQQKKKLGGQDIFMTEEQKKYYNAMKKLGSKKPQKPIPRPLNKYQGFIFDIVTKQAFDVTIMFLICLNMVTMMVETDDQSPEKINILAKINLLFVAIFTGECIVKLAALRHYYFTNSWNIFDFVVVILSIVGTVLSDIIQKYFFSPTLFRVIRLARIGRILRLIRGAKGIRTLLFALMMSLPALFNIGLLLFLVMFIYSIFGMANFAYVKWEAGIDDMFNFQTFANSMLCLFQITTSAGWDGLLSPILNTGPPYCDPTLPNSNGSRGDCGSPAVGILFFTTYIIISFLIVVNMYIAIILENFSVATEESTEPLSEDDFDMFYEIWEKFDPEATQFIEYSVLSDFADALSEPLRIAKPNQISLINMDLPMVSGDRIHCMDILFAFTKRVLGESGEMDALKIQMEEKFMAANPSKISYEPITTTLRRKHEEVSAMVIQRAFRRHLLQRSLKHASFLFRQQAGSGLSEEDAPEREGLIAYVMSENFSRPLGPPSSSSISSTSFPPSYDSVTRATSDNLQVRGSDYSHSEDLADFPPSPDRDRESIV

Chain of hNav1.7 (Q15858 whole entry, looked up): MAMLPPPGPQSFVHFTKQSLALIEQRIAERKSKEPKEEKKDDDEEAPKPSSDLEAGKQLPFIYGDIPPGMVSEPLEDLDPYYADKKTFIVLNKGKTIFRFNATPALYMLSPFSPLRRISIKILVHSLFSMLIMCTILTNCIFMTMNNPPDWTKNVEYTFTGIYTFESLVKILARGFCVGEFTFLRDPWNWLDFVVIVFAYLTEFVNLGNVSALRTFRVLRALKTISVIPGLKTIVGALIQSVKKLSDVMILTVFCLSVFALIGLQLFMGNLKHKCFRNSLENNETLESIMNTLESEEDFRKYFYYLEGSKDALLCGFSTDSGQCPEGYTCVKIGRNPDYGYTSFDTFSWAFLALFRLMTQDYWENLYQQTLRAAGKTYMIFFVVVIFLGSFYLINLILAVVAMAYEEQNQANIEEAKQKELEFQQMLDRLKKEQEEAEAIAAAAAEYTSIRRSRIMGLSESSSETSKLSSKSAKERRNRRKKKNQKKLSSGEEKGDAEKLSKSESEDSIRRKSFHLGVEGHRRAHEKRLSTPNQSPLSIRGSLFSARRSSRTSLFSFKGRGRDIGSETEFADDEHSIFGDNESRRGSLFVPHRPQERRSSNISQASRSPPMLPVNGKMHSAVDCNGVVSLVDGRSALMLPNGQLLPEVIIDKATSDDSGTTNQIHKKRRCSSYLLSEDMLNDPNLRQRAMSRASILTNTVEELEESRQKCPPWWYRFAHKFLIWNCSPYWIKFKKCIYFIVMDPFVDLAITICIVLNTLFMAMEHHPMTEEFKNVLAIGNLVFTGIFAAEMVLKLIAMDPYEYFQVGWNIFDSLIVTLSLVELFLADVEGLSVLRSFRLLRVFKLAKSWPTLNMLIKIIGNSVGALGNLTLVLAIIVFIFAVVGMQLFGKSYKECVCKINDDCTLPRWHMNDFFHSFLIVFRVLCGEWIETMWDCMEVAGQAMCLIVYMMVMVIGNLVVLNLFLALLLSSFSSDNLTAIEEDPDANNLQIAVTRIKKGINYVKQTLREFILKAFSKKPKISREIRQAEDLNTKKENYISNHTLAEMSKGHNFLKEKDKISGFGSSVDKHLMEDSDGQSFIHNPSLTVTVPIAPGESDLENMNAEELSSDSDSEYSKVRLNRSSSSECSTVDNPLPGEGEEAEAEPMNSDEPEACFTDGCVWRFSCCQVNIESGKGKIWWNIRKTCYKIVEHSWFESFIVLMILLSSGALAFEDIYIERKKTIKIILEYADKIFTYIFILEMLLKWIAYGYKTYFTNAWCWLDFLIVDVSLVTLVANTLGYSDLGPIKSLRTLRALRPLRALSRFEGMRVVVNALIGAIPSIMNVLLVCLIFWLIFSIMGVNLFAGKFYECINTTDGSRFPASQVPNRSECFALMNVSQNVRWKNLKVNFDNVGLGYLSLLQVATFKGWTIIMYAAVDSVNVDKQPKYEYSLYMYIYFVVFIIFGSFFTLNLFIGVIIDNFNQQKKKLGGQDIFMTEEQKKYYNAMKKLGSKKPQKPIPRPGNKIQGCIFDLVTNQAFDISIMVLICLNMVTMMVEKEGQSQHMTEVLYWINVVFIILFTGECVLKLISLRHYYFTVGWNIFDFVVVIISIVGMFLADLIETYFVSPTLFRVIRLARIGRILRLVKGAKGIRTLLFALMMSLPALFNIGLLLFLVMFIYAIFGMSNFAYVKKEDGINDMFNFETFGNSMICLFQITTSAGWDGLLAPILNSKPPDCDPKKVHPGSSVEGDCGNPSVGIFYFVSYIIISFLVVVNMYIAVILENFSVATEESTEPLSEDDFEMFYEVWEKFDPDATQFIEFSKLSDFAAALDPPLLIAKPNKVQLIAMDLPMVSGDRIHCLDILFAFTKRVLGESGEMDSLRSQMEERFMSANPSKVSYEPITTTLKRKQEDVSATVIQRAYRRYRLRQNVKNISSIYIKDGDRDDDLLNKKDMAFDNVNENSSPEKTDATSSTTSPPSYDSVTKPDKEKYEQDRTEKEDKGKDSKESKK

With `CC[C@H](C)[C@@H]1NC(=O)[C@@H]2CSSC[C@@H]3NC(=O)[C@H](C(C)C)NC(=O)[C@H](CC(C)C)NC(=O)[C@H](CC(N)=O)NC(=O)[C@@H]4CCCN4C(=O)[C@H](CCCNC(=N)N)NC(=O)[C@H](CSSC[C@H](NC(=O)[C@@H](N)CC(=O)O)C(=O)N[C@@H](CC(C)C)C(=O)NCC(=O)N[C@@H](Cc4ccccc4)C(=O)N[C@@H](CCSC)C(=O)N[C@@H](CCCNC(=N)N)C(=O)N[C@@H](CCCCN)C(=O)N2)NC(=O)[C@H](CSSC[C@@H](C(=O)N[C@@H](CCCCN)C(=O)N[C@@H](Cc2ccc(O)cc2)C(=O)N[C@H](C(=O)N[C@@H](Cc2ccccc2)C(N)=O)C(C)C)NC(=O)[C@H](Cc2c[nH]c4ccccc24)NC(=O)[C@H](CCCCN)NC(=O)[C@H](Cc2c[nH]cn2)NC(=O)[C@H]([C@@H](C)O)NC(=O)[C@H](CCCNC(=N)N)NC(=O)[C@H](CO)NC3=O)NC(=O)[C@H](CCC(=O)O)NC(=O)[C@H](CC(=O)O)NC(=O)[C@H](CC(N)=O)NC(=O)[C@H](CC(=O)O)NC(=O)[C@@H]2CCCN2C1=O` [[Glu15]GpTx-1(1-34)] (H-DCLGFMRKCIPDNDECCRPNLVCSRTHKWCKYVF-NH2; disulfide 2-17, 9-23, 16-30), the IC50 on hNav1.7 worked out at 20 nM; at hNav1.5, 10000 nM.

Regarding `CC[C@H](C)[C@@H]1NC(=O)[C@@H]2CSSC[C@@H]3NC(=O)[C@H](C(C)C)NC(=O)[C@H](CC(C)C)NC(=O)[C@H](CC(N)=O)NC(=O)[C@@H]4CCCN4C(=O)[C@H](CCCNC(=N)N)NC(=O)[C@H](CSSC[C@H](NC(=O)[C@@H](N)CC(=O)O)C(=O)N[C@@H](CC(C)C)C(=O)NCC(=O)N[C@@H](Cc4ccccc4)C(=O)N[C@@H](CCSC)C(=O)N[C@@H](CCCNC(=N)N)C(=O)N[C@@H](CCCCN)C(=O)N2)NC(=O)[C@H](CSSC[C@@H](C(=O)N[C@@H](CCCCN)C(=O)N[C@@H](Cc2ccc(O)cc2)C(=O)N[C@H](C(=O)N[C@@H](Cc2ccccc2)C(N)=O)C(C)C)NC(=O)[C@H](Cc2c[nH]c4ccccc24)NC(=O)[C@H](CCCCN)NC(=O)[C@H](Cc2c[nH]cn2)NC(=O)[C@H]([C@@H](C)O)NC(=O)[C@H](CCC(=O)O)NC(=O)[C@H](CO)NC3=O)NC(=O)[C@H](CCCCN)NC(=O)[C@H](CC(=O)O)NC(=O)[C@H](CC(N)=O)NC(=O)[C@H](CC(=O)O)NC(=O)[C@@H]2CCCN2C1=O` [[Glu25]GpTx-1(1-34)] (H-DCLGFMRKCIPDNDKCCRPNLVCSETHKWCKYVF-NH2; disulfide 2-17, 9-23, 16-30), the IC50 at hNav1.7 is 28 nM; on hNav1.5 it was above 10000 nM.

On to `CC[C@H](C)[C@@H]1NC(=O)[C@@H]2CSSC[C@@H]3NC(=O)[C@H](C(C)C)NC(=O)[C@H](CC(C)C)NC(=O)[C@H](CC(N)=O)NC(=O)[C@@H]4CCCN4C(=O)[C@H](CCCNC(=N)N)NC(=O)[C@H](CSSC[C@H](NC(=O)[C@@H](N)CC(=O)O)C(=O)N[C@@H](CC(C)C)C(=O)NCC(=O)N[C@@H](Cc4ccccc4)C(=O)N[C@@H](CCSC)C(=O)N[C@@H](CCCNC(=N)N)C(=O)N[C@@H](CCCCN)C(=O)N2)NC(=O)[C@H](CSSC[C@@H](C(=O)N[C@@H](CCCCN)C(=O)N[C@@H](Cc2ccc(O)cc2)C(=O)N[C@H](C(=O)N[C@@H](Cc2ccccc2)C(N)=O)C(C)C)NC(=O)[C@H](Cc2c[nH]c4ccccc24)NC(=O)[C@H](CCCCN)NC(=O)[C@H](Cc2cnc[nH]2)NC(=O)[C@H](Cc2cnc[nH]2)NC(=O)[C@H](CCCNC(=N)N)NC(=O)[C@H](CO)NC3=O)NC(=O)[C@H](CCCCN)NC(=O)[C@H](CC(=O)O)NC(=O)[C@H](CC(N)=O)NC(=O)[C@H](CC(=O)O)NC(=O)[C@@H]2CCCN2C1=O` [[His26]GpTx-1(1-34)] (H-DCLGFMRKCIPDNDKCCRPNLVCSRHHKWCKYVF-NH2; disulfide 2-17, 9-23, 16-30), for which the IC50 was 3 nM on hNav1.7 and 4950 nM against hNav1.5.

Regarding `CC[C@H](C)[C@@H]1NC(=O)[C@@H]2CSSC[C@@H]3NC(=O)[C@H](C(C)C)NC(=O)[C@H](CC(C)C)NC(=O)[C@H](CC(N)=O)NC(=O)[C@@H]4CCCN4C(=O)[C@H](CCCNC(=N)N)NC(=O)[C@H](CSSC[C@H](NC(=O)[C@@H](N)CC(=O)O)C(=O)N[C@@H](CC(C)C)C(=O)NCC(=O)N[C@@H](Cc4ccccc4)C(=O)N[C@@H](CCSC)C(=O)N[C@@H](CCCNC(=N)N)C(=O)N[C@@H](CCCCN)C(=O)N2)NC(=O)[C@H](CSSC[C@@H](C(=O)N[C@@H](CCCCN)C(=O)N[C@@H](Cc2ccc(O)cc2)C(=O)N[C@H](C(=O)N[C@@H](Cc2ccccc2)C(N)=O)C(C)C)NC(=O)[C@H](Cc2c[nH]c4ccccc24)NC(=O)[C@H](CCCCN)NC(=O)[C@H](Cc2c[nH]cn2)NC(=O)[C@H]([C@@H](C)O)NC(=O)[C@H](CCCCN(C)C)NC(=O)[C@H](CO)NC3=O)NC(=O)[C@H](CCCCN)NC(=O)[C@H](CC(=O)O)NC(=O)[C@H](CC(N)=O)NC(=O)[C@H](CC(=O)O)NC(=O)[C@@H]2CCCN2C1=O` [[K(Me2)25]GpTx-1(1-34)] (H-DCLGFMRKCIPDNDKCCRPNLVCS[Lys(Me2)]THKWCKYVF-NH2; disulfide 2-17, 9-23, 16-30), the IC50 came to 8 nM against hNav1.7 and 13300 nM against hNav1.5.

With `CC[C@H](C)[C@@H]1NC(=O)[C@@H]2CSSC[C@@H]3NC(=O)[C@H](C(C)C)NC(=O)[C@H](CC(C)C)NC(=O)[C@H](CC(N)=O)NC(=O)[C@@H]4CCCN4C(=O)[C@H](CCCNC(=N)N)NC(=O)[C@H](CSSC[C@H](NC(=O)[C@@H](N)CC(=O)O)C(=O)N[C@@H](CC(C)C)C(=O)NCC(=O)N[C@@H](CC(C)C)C(=O)N[C@@H](CC(C)C)C(=O)N[C@@H](CCCNC(=N)N)C(=O)N[C@@H](CCCCN)C(=O)N2)NC(=O)[C@H](CSSC[C@@H](C(=O)N[C@@H](CCCCN)C(=O)N[C@@H](Cc2ccc(O)cc2)C(=O)N[C@H](C(=O)N[C@@H](Cc2ccccc2)C(N)=O)C(C)C)NC(=O)[C@H](Cc2c[nH]c4ccccc24)NC(=O)[C@H](CCCCN)NC(=O)[C@H](Cc2c[nH]cn2)NC(=O)[C@H]([C@@H](C)O)NC(=O)[C@H](CCCNC(=N)N)NC(=O)[C@H](CO)NC3=O)NC(=O)[C@H](CCCCN)NC(=O)[C@H](CC(=O)O)NC(=O)[C@H](CC(N)=O)NC(=O)[C@H](CC(=O)O)NC(=O)[C@@H]2CCCN2C1=O` [[Leu5,6]GpTx-1(1-34)] (H-DCLGLLRKCIPDNDKCCRPNLVCSRTHKWCKYVF-NH2; disulfide 2-17, 9-23, 16-30), the results for the IC50 on hNav1.7 and against hNav1.5 were 11 nM and above 10000 nM, respectively.

Turning to `CC[C@H](C)[C@@H]1NC(=O)[C@@H]2CSSC[C@@H]3NC(=O)[C@H](C(C)C)NC(=O)[C@H](CC(C)C)NC(=O)[C@H](CC(N)=O)NC(=O)[C@@H]4CCCN4C(=O)[C@H](CCCCN)NC(=O)[C@H](CSSC[C@H](NC(=O)[C@@H](N)CC(=O)O)C(=O)N[C@@H](CC(C)C)C(=O)NCC(=O)N[C@@H](Cc4ccccc4)C(=O)N[C@@H](CCSC)C(=O)N[C@@H](CCCNC(=N)N)C(=O)N[C@@H](CCCCN)C(=O)N2)NC(=O)[C@H](CSSC[C@@H](C(=O)N[C@@H](CCCCN)C(=O)N[C@@H](Cc2ccc(O)cc2)C(=O)N[C@H](C(=O)N[C@@H](Cc2ccccc2)C(N)=O)C(C)C)NC(=O)[C@H](Cc2c[nH]c4ccccc24)NC(=O)[C@H](CCCCN)NC(=O)[C@H](Cc2cnc[nH]2)NC(=O)[C@H]([C@@H](C)O)NC(=O)[C@H](CCCNC(=N)N)NC(=O)[C@H](CO)NC3=O)NC(=O)[C@H](CCCCN)NC(=O)[C@H](CC(=O)O)NC(=O)[C@H](CC(N)=O)NC(=O)[C@H](CC(=O)O)NC(=O)[C@@H]2CCCN2C1=O` [[Lys18]GpTx-1(1-34)] (H-DCLGFMRKCIPDNDKCCKPNLVCSRTHKWCKYVF-NH2; disulfide 2-17, 9-23, 16-30), the IC50 at hNav1.7 was determined as 2 nM; against hNav1.5, 16400 nM.

Turning to `CC[C@H](C)[C@@H]1NC(=O)[C@@H]2CSSC[C@@H]3NC(=O)[C@H](C(C)C)NC(=O)[C@H](CC(C)C)NC(=O)[C@H](CC(N)=O)NC(=O)[C@H](CCCCN)NC(=O)[C@H](CCCNC(=N)N)NC(=O)[C@H](CSSC[C@H](NC(=O)[C@@H](N)CC(=O)O)C(=O)N[C@@H](CC(C)C)C(=O)NCC(=O)N[C@@H](Cc4ccccc4)C(=O)N[C@@H](CCSC)C(=O)N[C@@H](CCCNC(=N)N)C(=O)N[C@@H](CCCCN)C(=O)N2)NC(=O)[C@H](CSSC[C@@H](C(=O)N[C@@H](CCCCN)C(=O)N[C@@H](Cc2ccc(O)cc2)C(=O)N[C@H](C(=O)N[C@@H](Cc2ccccc2)C(N)=O)C(C)C)NC(=O)[C@H](Cc2c[nH]c4ccccc24)NC(=O)[C@H](CCCCN)NC(=O)[C@H](Cc2cnc[nH]2)NC(=O)[C@H]([C@@H](C)O)NC(=O)[C@H](CCCNC(=N)N)NC(=O)[C@H](CO)NC3=O)NC(=O)[C@H](CCCCN)NC(=O)[C@H](CC(=O)O)NC(=O)[C@H](CC(N)=O)NC(=O)[C@H](CC(=O)O)NC(=O)[C@@H]2CCCN2C1=O` [[Lys19]GpTx-1(1-34)] (H-DCLGFMRKCIPDNDKCCRKNLVCSRTHKWCKYVF-NH2; disulfide 2-17, 9-23, 16-30), the IC50 on hNav1.7 was 3 nM; against hNav1.5, 9100 nM.

Regarding `CC[C@H](C)[C@@H]1NC(=O)[C@@H]2CSSC[C@@H]3NC(=O)[C@H](C(C)C)NC(=O)[C@H](CC(C)C)NC(=O)[C@H](CC(N)=O)NC(=O)[C@@H]4CCCN4C(=O)[C@H](CCCNC(=N)N)NC(=O)[C@H](CSSC[C@H](NC(=O)[C@@H](N)CC(=O)O)C(=O)N[C@@H](CC(C)C)C(=O)NCC(=O)N[C@@H](CCSC)C(=O)N[C@@H](CCSC)C(=O)N[C@@H](CCCNC(=N)N)C(=O)N[C@@H](CCCCN)C(=O)N2)NC(=O)[C@H](CSSC[C@@H](C(=O)N[C@@H](CCCCN)C(=O)N[C@@H](Cc2cn(C)c4ccccc24)C(=O)N[C@H](C(=O)N[C@@H](Cc2ccccc2)C(N)=O)C(C)C)NC(=O)[C@H](Cc2c[nH]c4ccccc24)NC(=O)[C@H](CCCCN)NC(=O)[C@H](Cc2c[nH]cn2)NC(=O)[C@H]([C@@H](C)O)NC(=O)[C@H](CCCNC(=N)N)NC(=O)[C@H](CO)NC3=O)NC(=O)[C@H](CCCCN)NC(=O)[C@H](CC(=O)O)NC(=O)[C@H](CC(N)=O)NC(=O)[C@H](CC(=O)O)NC(=O)[C@@H]2CCCN2C1=O` [[Met5;1′NMeW32]GpTx-1(1-34)] (H-DCLGMMRKCIPDNDKCCRPNLVCSRTHKWCK[Trp(1-Me)]VF-NH2; disulfide 2-17, 9-23, 16-30), the IC50 against hNav1.7 was found to be 7 nM; at hNav1.5, 14800 nM.

The IC50 is the concentration that inhibits the measured activity by half. Lower therefore signals inhibition by little substance.
